Source: patent US6545006B1, “Process for obtaining L-dihydroorotic acid and use thereof” (Aventis Pharma Deutschland GmbH, priority 1997, dated 2003)

Assays:
Type in all cases: physicochemical
[1] = Stability of L-DHO for 18 h at 14° C. in rat serum; conditions: for concentration 1 5 μg/ml / Residue (%) / Concentration 2 20 μg/ml: Rat serum, 14° C.
Description: (§1) In order to simulate the conditions of the samples when they are waiting in the autosampler for the actual analysis the stability during 18 h at 14° C. was determined. For that reason the cell lysates were spiked and then treated with 30 μl 6 M KOH/100 μl lysate before the start of the analysis. Correspondingly, the serum samples were spiked and then deproteinized as described in 1.5.2. […] In serum samples the analyte is stable under these conditions. For these reasons only so many HPLC samples were prepared that the maximal length of stay in the autosampler was less than 18 h.

[2] = Stability of L-DHO in rat serum at −20° C.; conditions: for Residue (%) / concentration 1 5 μg/ml / Concentration 2 20 μg/ml: Rat serum
Description: (§2) A standard stock solution was prepared by dissolving 1 mg L-DHO in 1 ml water. Aliquots of 400 μl were frozen at −20° C. Stability of these solutions was guaranteed for at least 4 weeks. Defined amounts of the stock solution were added to the cell lysates and to human or rat serum and assayed to evaluate the linearity between the increase of the signal and the spiked L-DHO concentration. The precision and the accuracy of the method were investigated by using quality control (QC) samples with an L-DHO content in the low, the middle and the high concentration range of the signal/concentration linearity curve.
(§3) In order to reduce the protein content […] serum were added to a Microcon filter (10 000 D, model 10, code 42407, Amicon) and centrifuged for 30 min at 13 000 rounds per minute (rpm). The flow through consisted of about 150 μl and contains the analyte L-DHO. From this liquid 20 μl were used for HPLC analysis.
(§4) L-DHO was stable under the above mentioned conditions in Jurkat cells over a period of at least 4 weeks. […] For these reasons it can be stated only that in rat and human serum samples L-DHO is definitely stable only for at least 1 week.

[3] = Stability of L-DHO for 18 h at 14° C. in human serum; conditions: for Residue (%) / concentration 1 5 μg/ml / Concentration 2 20 μg/ml: Human serum, 14° C.
Description: as §1

[4] = Stability of L-DHO in Jurkat cell lysates at −20° C.; conditions: Jurkat cells
Description: as §2
Cells were suspended in a defined medium volume and cell density of samples was determined via vital microscopy using Eosin. About 10×10^6 cells were removed, pelleted by 5 minute-centrifugation at 350×g and the supernatant was discarded. Lysis of the cells was done by resuspending the cell pellet in 500 μl 1.2 M HClO4. This mixture was transferred in 2.0 ml Eppendorf safe-lock caps and the protein was precipitated by 2 minutes high speed centrifugation. The supernatant was completely removed, transferred in glass vials and after addition of 500 μl chloroform thoroughly mixed by 2 minutes vortexing. Cellular lipids were extracted by chloroform following 10 minutes centrifugation (1502 g) at 10° C. The purified supernatant was collected in 2 ml Eppendorf-caps and stored at −20° C. until further used. For the HPLC analysis 100 μl of this supernatant were neutralized with 30 μl 6 M KOH. After shaking for about 5 sec the samples were stored on ice for 30 min. Thereafter they were centrifuged for 5 min at 15 000 rpm. From the clear supernatant 20 μl were used for the HPLC analysis.
as §4

[5] = Stability of L-DHO standard stock solution; conditions: 1 mg L-DHO in 1 ml water, frozen at −20° C.
Description: as §2

[6] = Stability of L-DHO in human serum at −20° C.; conditions: for Residue (%) / concentration 1 5 μg/ml / Concentration 2 20 μg/ml: Human serum
Description: as §2, §3, §4

[7] = Stability of L-DHO for 18 h at 14° C. in Jurkat cell lysates; conditions: for Residue (%) / concentration 1 20 μg/ml / Concentration 2 100 μg/ml: Jurkat cells, 14° C.
Description: as §1

In the case of O=C1C[C@@H](C(=O)O)NC(=O)N1 [L-DHO, L-dihydroorotic acid], the “concentration 1 5 μg/ml” value ([1]; 5 μg/ml, 0 h) is reported as 4610 ng/mL, the “Residue (%)” value ([1]; 5 μg/ml, 18 h) is reported as 107.6% and the “concentration 1 5 μg/ml” value ([1]; 5 μg/ml, 18 h) is reported as 4960 ng/mL. The “Concentration 2 20 μg/ml” value ([1]; 20 μg/ml, 0 h) was 19990 ng/mL, the “Residue (%)” value ([1]; 20 μg/ml, 0 h) was 100% and the “Concentration 2 20 μg/ml” value ([1]; 20 μg/ml, 18 h) was 20530 ng/mL. For the same compound, the “Residue (%)” value ([1]; 20 μg/ml, 18 h) was 102.7%, the “stability of the analyte in serum samples” value ([1]; rat serum, 18 h at 14° C.) was “stable” and the “Residue (%)” value ([2]; 5 μg/ml, Time 0 (h)) was 100%. For the same compound, the “concentration 1 5 μg/ml” value ([2]; 5 μg/ml, Time 0 (h)) was 4300 ng/mL, the “Residue (%)” value ([2]; 5 μg/ml, Time 7 (h)) was 105.1% and the “concentration 1 5 μg/ml” value ([2]; 5 μg/ml, Time 7 (h)) was 4520 ng/mL. The “Residue (%)” value ([2]; 5 μg/ml, Time 14 (h)) was 111.9%, the “concentration 1 5 μg/ml” value ([2]; 5 μg/ml, Time 14 (h)) was 4810 ng/mL and the “Residue (%)” value ([2]; 5 μg/ml, Time 21 (h)) was 129.1%. The “concentration 1 5 μg/ml” value ([2]; 5 μg/ml, Time 21 (h)) was 5550 ng/mL, the “Concentration 2 20 μg/ml” value ([2]; 20 μg/ml, Time 0 (h)) was 19940 ng/mL and the “Residue (%)” value ([2]; 20 μg/ml, Time 0 (h)) was 100%. The “Concentration 2 20 μg/ml” value ([2]; 20 μg/ml, Time 7 (h)) was 19620 ng/mL, the “Residue (%)” value ([2]; 20 μg/ml, Time 7 (h)) was 98.4% and the “Concentration 2 20 μg/ml” value ([2]; 20 μg/ml, Time 14 (h)) was 20930 ng/mL. For the same compound, the “Residue (%)” value ([2]; 20 μg/ml, Time 14 (h)) was 105.0%, the “Concentration 2 20 μg/ml” value ([2]; 20 μg/ml, Time 21 (h)) was 22330 ng/mL and the “Residue (%)” value ([2]; 20 μg/ml, Time 21 (h)) was 112.2%. The “period over which L-DHO is definitely stable” value ([2]; rat serum) was “at least 1 week”, the “Residue (%)” value ([3]; 5 μg/ml, 0 h) was 100% and the “concentration 1 5 μg/ml” value ([3]; 5 μg/ml, 0 h) was 3340 ng/mL. For the same compound, the “Residue (%)” value ([3]; 5 μg/ml, 18 h) was 100.9%, the “concentration 1 5 μg/ml” value ([3]; 5 μg/ml, 18 h) was 3370 ng/mL and the “Concentration 2 20 μg/ml” value ([3]; 20 μg/ml, 0 h) was 18780 ng/mL. For the same compound, the “Residue (%)” value ([3]; 20 μg/ml, 0 h) was 100%, the “Concentration 2 20 μg/ml” value ([3]; 20 μg/ml, 18 h) was 22090 ng/mL and the “Residue (%)” value ([3]; 20 μg/ml, 18 h) was 117.6%. For the same compound, the “stability of the analyte in serum samples” value ([3]; human serum, 18 h at 14° C.) was “stable”, the “Residue (%)” value ([4]; 20 μg/ml, 0 days) was 100% and the “concentration 1 20 μg/ml” value ([4]; 20 μg/ml, 0 days) was 19340 ng/mL. For the same compound, the “Residue (%)” value ([4]; 20 μg/ml, 7 days) was 99.7%, the “concentration 1 20 μg/ml” value ([4]; 20 μg/ml, 7 days) was 19280 ng/mL and the “Residue (%)” value ([4]; 20 μg/ml, 29 days) was 103.3%. The “concentration 1 20 μg/ml” value ([4]; 20 μg/ml, 29 days) was 19980 ng/mL, the “Concentration 2 100 μg/ml” value ([4]; 100 μg/ml, 0 days) was 100050 ng/mL and the “Residue (%)” value ([4]; 100 μg/ml, 0 days) was 100%. The “Concentration 2 100 μg/ml” value ([4]; 100 μg/ml, 7 days) was 99090 ng/mL, the “Residue (%)” value ([4]; 100 μg/ml, 7 days) was 99.0% and the “Concentration 2 100 μg/ml” value ([4]; 100 μg/ml, 14 days) was 115320 ng/mL. The “Residue (%)” value ([4]; 100 μg/ml, 14 days) was 115.3%, the “Concentration 2 100 μg/ml” value ([4]; 100 μg/ml, 29 days) was 99350 ng/mL and the “Residue (%)” value ([4]; 100 μg/ml, 29 days) was 99.3%. The “period over which L-DHO was stable” value ([4]; 2-3 freezing/thawing cycles) was “at least 4 weeks”, the “Stability of standard stock solution” value [5] was “at least 4 weeks” and the “Residue (%)” value ([6]; 5 μg/ml, Time 0 (h)) was 100%. For the same compound, the “concentration 1 5 μg/ml” value ([6]; 5 μg/ml, Time 0 (h)) was 4670 ng/mL, the “Residue (%)” value ([6]; 5 μg/ml, Time 8 (h)) was 103.0% and the “concentration 1 5 μg/ml” value ([6]; 5 μg/ml, Time 8 (h)) was 4810 ng/mL. The “Residue (%)” value ([6]; 5 μg/ml, Time 65 (h)) was 104.3%, the “concentration 1 5 μg/ml” value ([6]; 5 μg/ml, Time 65 (h)) was 4870 ng/mL and the “Concentration 2 20 μg/ml” value ([6]; 20 μg/ml, Time 0 (h)) was 20220 ng/mL. For the same compound, the “Residue (%)” value ([6]; 20 μg/ml, Time 0 (h)) was 100%, the “Concentration 2 20 μg/ml” value ([6]; 20 μg/ml, Time 8 (h)) was 20380 ng/mL and the “Residue (%)” value ([6]; 20 μg/ml, Time 8 (h)) was 100.8%. For the same compound, the “Concentration 2 20 μg/ml” value ([6]; 20 μg/ml, Time 65 (h)) was 23200 ng/mL, the “Residue (%)” value ([6]; 20 μg/ml, Time 65 (h)) was 114.7% and the “period over which L-DHO is definitely stable” value ([6]; human serum) was “at least 1 week”. For the same compound, the “Residue (%)” value ([7]; 20 μg/ml, 0 h) was 100%, the “concentration 1 20 μg/ml” value ([7]; 20 μg/ml, 0 h) was 19960 ng/mL and the “Residue (%)” value ([7]; 20 μg/ml, 18 h) was 93.2%. The “concentration 1 20 μg/ml” value ([7]; 20 μg/ml, 18 h) was 18600 ng/mL, the “Concentration 2 100 μg/ml” value ([7]; 100 μg/ml, 0 h) was 100020 ng/mL and the “Residue (%)” value ([7]; 100 μg/ml, 0 h) was 100%. For the same compound, the “Concentration 2 100 μg/ml” value ([7]; 100 μg/ml, 18 h) was 97430 ng/mL, the “Residue (%)” value ([7]; 100 μg/ml, 18 h) was 97.4% and the “reduction of L-DHO content” value ([7]; cells, 18 h at 14° C.) was no more than 7%.
